Patent publication US9221761B2, “Method for inhibition of deubiquitinating activity” (Vivolux AB, priority 2011, dated 2015)

Experiments:
[1] = target: T1, 19S RP (Homo sapiens, UniProt P54578+Q9Y5K5); assay: Ubiquitin-cleavage assay (Ub-GFP, ubiquitinated Hdm2); format: biochemical; settings: 19S RP 25 nM, 50 μM compound, 10 min
T1 construct: purchased Boston Biochem E-366
Method: Recombinant ubiquitin-GFP is a substrate for 19S RP DUB activity (15). […] The type of ubiquitin bonds present in the polyubiquitin chain determines the fate of an ubiquitin-modified substrate.
Ubiquitin-cleavage assay. The recombinant Ub-GFP plasmid pet19b Ub-M-GFP is generated as described (30). In brief recombinant Ub-GFP is purified from BL21 E. coli cells by His affinity purification. For cleavage assays 19S RP (25 nM) is incubated with 10 mM NEM, 250 μM TPEN or 50 μM of the compound of the invention for 10 min followed by the addition of recombinant Ub-GFP (200 nM). Ubiquitin chain disassembly reactions are performed essentially as above except K48- or K63-linked ubiquitin tetramers (50 ng) are substituted for Ub-GFP. The level of Ub-GFP cleavage or ubiquitin disassembly is determined by immunoblotting with anti ubiquitin antibodies. The ubiquitinated Hdm2 substrate is generated according to the Boston Biochem protocol (K-200). For the cleavage assay 19S RP (25 nM) is incubated with 50 μM of the compound of the invention or DMSO for 10 min followed by the addition of ubiquitinated Hdm2 substrate (100 nM). The cleavage of ubiquitinated Hdm2 substrate and ubiquitinated Hdm2 is determined by immunoblotting with anti-Hdm2 antibodies.

[2] = tested on: HCT116 colon cancer cells; assay: Apoptosis in isogenic clones of HCT116 colon cancer cells; format: cell-based
Description: The increase in sub G1 DNA, caspase-3 activation and cleavage of poly-ADP ribose polymerase (PARP) and cytokeratin is associated with an overall decrease in cell viability at drug concentrations that induce the accumulation of polyubiquitin connecting UPS inhibition and apoptosis. Apoptosis induction by bortezomib is sensitive to the status of the p53 tumor suppressor and over-expression of the anti-apoptotic Bcl-2 oncoprotein (11, 12). […] Cell culture. MCF7 cells are maintained in MEM/10% fetal calf serum. HCT-116 p53+/+, p53−/−, Bcl-2+/+, PUMA−/− and BAX−/− cells are maintained in McCoy's 5A modified medium/10% fetal calf serum. The HCT-116 p53+/+, p53−/−, PUMA−/− and BAX−/− are generated as described (25). The HCT-116 Bcl-2+/+ cell line was generated by transfecting parental HCT-116 p53+/+ cells with pCEP4 Bcl-2 (Addgene plasmid 16461) (26) and isolating high expression clones. FaDu and LLC3 cells are maintained in DMEM high glucose medium supplemented with 10% fetal calf serum, Na pyruvate, Hepes and non-essential amino acids. 4T1.12B carcinoma cells are maintained in RPMI medium supplemented with 10% fetal calf serum. The proteasome reporter cell line MelJuSo Ub-YFP was generated as described (12). […] Cell viability is determined by measuring acid phosphatase activity or using the FMCA method (32). […] Absorbance is measured at 405 nm. […]

[3] = tested on: HCT-116 cells; assay: Cell cycle arrest and DNA damage markers; format: cell-based

In the case of `C=CC(=O)N1C/C(=C\c2ccc([N+](=O)[O-])cc2)C(=O)/C(=C/c2ccc([N+](=O)[O-])cc2)C1` [b-AP15], the “cleavage of Ub-GFP and ubiquitinated HDM2 by 19S RP” value [1] is reported as “efficiently inhibited”, the “sensitivity of induced apoptosis to over-expression of Bcl-2 and disruption of p52, BAX or PUMA” value [2] is reported as “insensitive” and the “genotoxicity (DNA damage markers phosphorylated p53 Ser 15, H2AX Ser 139)” value [3] is reported as “not a genotoxic agent”.
